From ChEMBL document CHEMBL1201862, “PubChem BioAssay data set” (2004)
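Each compound was tested at five concentrations against cells in 96-well plates for 48 hours. Abbreviation: GI50, concentration required for 50% inhibition of growth.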 Calls of active or inactive are those of the source. Cut-off read from the data, not from the text of the source: active = GI50 up to about 1.1 µM and inactive = higher.

How the values were obtained:
Assay in all cases: growth of human tumour cells (NCI), 48 h
[1] = test system: Malme-3M
[2] = test system: OVCAR-8
[3] = test system: IGROV-1
[4] = test system: HCT-116
[5] = test system: SR
[6] = test system: UO-31
[7] = test system: OVCAR-4
[8] = test system: SK-OV-3
[9] = test system: SK-MEL-2
[10] = test system: K562
[11] = test system: A498
[12] = test system: 786-0
[13] = test system: EKVX
[14] = test system: HT-29
[15] = test system: A549
[16] = test system: TK-10
[17] = test system: U-251
[18] = test system: HCC 2998

Measured: GI50

COC(=O)C1CC2C=CC=CC(=O)C2(C)C1 (stereo not given)
inactive: [1] 49.7 µM | [2] 41.1 µM | [3] > 100 µM | [4] 28 µM | [5] 27.8 µM | [6] > 100 µM | [7] 83.2 µM | [8] > 100 µM | [9] 59.6 µM | [10] 30.7 µM | [11] 36.2 µM | [12] 36.6 µM | [13] > 100 µM | [14] 40 µM | [15] > 100 µM | [16] > 100 µM | [17] > 100 µM

OCC1OC(NO)C(O)C(O)C1O (stereo not given)
inactive: [1] > 100 µM | [18] > 100 µM | [2] > 100 µM | [3] > 100 µM | [4] > 100 µM | [5] > 100 µM | [7] > 100 µM | [10] > 100 µM | [11] > 100 µM | [12] > 100 µM | [14] > 100 µM | [15] > 100 µM | [16] > 100 µM | [17] > 100 µM

CC(C)N(C(=O)C12C3C4C1C1C2C3C41C(O)C(C)(C)C)C(C)C (stereo not given)
inactive: [1] > 50 µM | [18] > 50 µM | [2] > 50 µM | [3] > 50 µM | [4] > 50 µM | [5] > 50 µM | [6] > 50 µM | [8] > 50 µM | [10] > 50 µM | [11] > 50 µM | [12] > 50 µM | [13] > 50 µM | [14] > 50 µM | [15] > 50 µM | [17] > 50 µM

O=C(Cn1cc(I)c(C(=O)NCC(O)CO)n1)NCC(O)CO (stereo not given)
inactive: [1] > 100 µM | [18] > 100 µM | [2] > 100 µM | [3] > 100 µM | [4] > 100 µM | [6] > 100 µM | [7] > 100 µM | [8] > 100 µM | [9] > 100 µM | [10] > 100 µM | [11] > 100 µM | [12] > 100 µM | [13] > 100 µM | [14] > 100 µM | [15] > 100 µM | [16] > 100 µM | [17] > 100 µM

CC(C)(C)c1cc(C(=O)O)c(C(c2ccccc2)c2ccccc2C(=O)O)c(C(=O)O)c1 (stereo not given)
inactive: [1] > 100 µM | [2] > 100 µM | [4] > 100 µM | [5] > 100 µM | [6] > 100 µM | [7] 19.9 µM | [8] 21.7 µM | [9] > 100 µM | [10] > 100 µM | [12] > 100 µM | [13] > 100 µM | [14] > 100 µM | [15] > 100 µM | [16] > 100 µM | [17] 11.3 µM

CCCCCCCCCCCCCP(=O)(OC)OC
inactive: [1] 22.5 µM | [18] 21.5 µM | [2] 17 µM | [3] 19.3 µM | [4] 19.6 µM | [5] 19 µM | [6] 16.3 µM | [7] 19.8 µM | [8] 19 µM | [9] 17.5 µM | [10] 23.2 µM | [12] 19.5 µM | [13] 19.4 µM | [14] 18.4 µM | [15] 21.2 µM | [16] 17.8 µM | [17] 18.5 µM

CC(C)NCCNC(=O)c1ccccc1Nc1c(Cl)cccc1Cl
inactive: [18] 2.84 µM | [2] 16.6 µM | [3] 16 µM | [4] 11.3 µM | [5] 9.06 µM | [6] 10.1 µM | [7] 14.4 µM | [8] 14.8 µM | [10] 6.95 µM | [12] 4.16 µM | [13] 13.6 µM | [14] 4.71 µM | [15] 17.3 µM | [16] 11.8 µM | [17] 4.65 µM

O=C(O)C(C(=O)C(=O)C(C(=O)O)c1ccc(Cl)cc1)c1ccc(Cl)cc1 (stereo not given)
inactive: [1] 2.5 µM | [18] 4.02 µM | [2] 2.25 µM | [3] 3.23 µM | [4] 3.1 µM | [5] 1.91 µM | [6] 4.72 µM | [7] 1.89 µM | [8] 5.89 µM | [10] 2.57 µM | [11] 4.76 µM | [12] 4.2 µM | [13] 3.27 µM | [14] 3.72 µM | [15] 2.9 µM | [16] 4.57 µM | [17] 3.22 µM

O=C(/C=C\c1cccc2ccccc12)c1ccc(F)cc1
inactive: [1] 17.7 µM | [18] 19.5 µM | [2] 14.8 µM | [3] 15.3 µM | [4] 13.9 µM | [6] 16.7 µM | [7] 20.1 µM | [8] 23.5 µM | [10] 11.1 µM | [11] 29.7 µM | [12] 18.1 µM | [13] 18.8 µM | [14] 17.3 µM | [15] 26.8 µM | [16] 15.3 µM | [17] 15.8 µM

CCOC(=O)c1cc(/C=C/C(C)=C/C(=O)OC)n(C)c1C
inactive: [1] > 100 µM | [18] 92.5 µM | [2] > 100 µM | [3] > 100 µM | [6] > 100 µM | [7] 60.7 µM | [8] > 100 µM | [10] 25.8 µM | [11] > 100 µM | [12] > 100 µM | [13] > 100 µM | [14] 40 µM | [15] > 100 µM | [16] > 100 µM | [17] > 100 µM

O=C(O)CCN(CCCN(CCC(=O)O)CCC(=O)O)CCC(=O)O
inactive: [1] > 100 µM | [18] > 100 µM | [2] > 100 µM | [3] > 100 µM | [4] > 100 µM | [7] > 100 µM | [8] > 100 µM | [9] > 100 µM | [10] > 100 µM | [11] > 100 µM | [12] > 100 µM | [13] > 100 µM | [14] > 100 µM | [15] > 100 µM | [16] > 100 µM | [17] > 100 µM

C[Si](C)(C)CN1C(=O)c2ccccc2C1(O)c1ccccc1 (stereo not given)
inactive: [1] > 100 µM | [18] > 100 µM | [2] > 100 µM | [3] 99.5 µM | [4] 48 µM | [5] 83.6 µM | [6] 30.5 µM | [7] 70.6 µM | [9] 97.1 µM | [10] 40.1 µM | [11] > 100 µM | [12] > 100 µM | [13] 91 µM | [14] 87.9 µM | [15] 40.4 µM | [16] > 100 µM | [17] > 100 µM

CC(=O)C=C1Nc2ccccc2N1
inactive: [1] > 100 µM | [18] > 100 µM | [2] > 100 µM | [3] > 100 µM | [4] > 100 µM | [5] > 100 µM | [6] > 100 µM | [7] > 100 µM | [9] > 100 µM | [10] > 100 µM | [12] > 100 µM | [13] > 100 µM | [14] > 100 µM | [15] > 100 µM | [17] > 100 µM

CC(=O)c1ccc(NC(=O)COC(=O)c2cccc3c(=O)c4ccccc4[nH]c23)cc1
inactive: [1] 42.5 µM | [18] > 100 µM | [2] 9.2 µM | [3] 37.4 µM | [4] 12.2 µM | [5] > 100 µM | [6] 96.2 µM | [7] 6.79 µM | [8] 67.8 µM | [10] > 100 µM | [11] 44 µM | [12] 37.8 µM | [13] > 100 µM | [14] 45.5 µM | [15] 45.4 µM | [16] 21.7 µM | [17] 15.5 µM

C=C1C(=O)c2cc3c(cc2C(c2cc(OC)c(OC)c(OC)c2)[C@@H]1C(=O)O)OCO3 (stereo not given in full)
inactive: [1] 50.6 µM | [18] > 100 µM | [2] > 100 µM | [3] 82 µM | [4] 48.4 µM | [6] 58.6 µM | [8] 42.6 µM | [10] 32.1 µM | [11] 32.6 µM | [12] 37 µM | [13] > 100 µM | [14] 37.2 µM | [15] 80.4 µM | [16] > 100 µM | [17] 49.9 µM

Cc1ccc2[nH]c(Sc3c([N+](=O)[O-])ncn3C)nc2c1
inactive: [1] 15.8 µM | [18] 15.7 µM | [2] 14.4 µM | [3] 22.1 µM | [4] 21.1 µM | [5] 12.3 µM | [6] 27.5 µM | [7] 18.1 µM | [8] 30 µM | [11] 25.1 µM | [12] 27.8 µM | [13] 26.1 µM | [14] 29.6 µM | [15] 30.5 µM | [16] 44.9 µM | [17] 22.9 µM

Clc1ccc(C(c2ccc(Cl)cc2)c2ccccn2)cc1
inactive: [1] 19.1 µM | [18] 15.9 µM | [2] 16.7 µM | [3] 37.8 µM | [5] 20.8 µM | [6] 16.5 µM | [7] 27.4 µM | [8] 34.6 µM | [9] 19 µM | [10] 21.6 µM | [12] 16.7 µM | [13] 23 µM | [14] 14.9 µM | [15] 18.5 µM | [16] 19.7 µM | [17] 17 µM
